Reference: article PMC8640510 (Cell Death and Differentiation, 2021)

Legend:
SARS-CoV-2 = SARS-CoV-2 viral infectivity assay; type: cell-based; details: A549+ACE2 cells; for direct antiviral effect on SARS-CoV-2 on their own: 72 h post infection, compound alone; for synergy with remdesivir, SARS-CoV-2: combination with remdesivir, #79: 60 μM, #96: […] μM, #102: 25 μM
HCoV-OC43 = HCoV-OC43 viral infectivity assay; type: cell-based; details: HCoV-OC43, HMC3 cells; combination with remdesivir; #79: 60 μM, #96: […] μM, #102: 25 μM
Procedure: HMC3 cells were seeded into black 96-well plates at 90% confluency. The next day, media was removed and replaced with complete media containing compounds/carrier 2 h prior to infection. After that, 5 μl of HCoV-OC43 virus was added to each well at an MOI of 0.005 for a final total volume of 100 μl/well. The plates were incubated at 33 °C. The viral suspension was removed after 12 h and drugs were added back to the cells to further incubate at 33 °C for 36 h. At 48 h post infection, cells were fixed with 4 % PFA in the media for 15 min. Residual PFA was quenched with a 50 mM NH4Cl and 100 mM NaCl solution. Cells were permeabilized and blocked in 5% FBS, 3% BSA, 0.05% Triton X-100 and 0.005% NaN3 in PBS for an hour. Anti-N antibody (Sigma 542-7D) was diluted in 4% FBS in PBS at 1:1000 dilution and was applied at 4 °C for 16 h. After several washing steps, cells were stained with AlexaFluor 594 and DAPI. For determination of cytotoxicity, HMC3 cells were seeded into opaque white wall 96-well plates. The following day, media was removed, replaced with media containing compounds/carrier and incubated for 48 h. After 48 h, cell viability was determined using alamarBlue™ Cell Viability Reagent using an Infinite 200 PRO microplate reader (Tecan).
Plates were scanned on a Citation 5 Imaging Multi-Mode Reader (BioTek). Gen5 software (version 3.10) was used for both image acquisition and analysis. A total number of 16 images/well were collected at 4x magnification to span the entire well. DAPI channel was used to build primary masks for the nucleus. Secondary masks were built within a 15 μm ring around the primary nuclear mask. Infection efficiencies were calculated from the ratio of the total fluorescence intensity within the secondary mask and the total area of the secondary mask for each well. Microscope images were prepared for publication using ImageJ (version 1.53i).

[1] = clinical studies in Japan, gastric diseases; cited from earlier work

SMILES | direct antiviral effect on SARS-CoV-2 on their own (SARS-CoV-2) | synergy with remdesivir, SARS-CoV-2 (SARS-CoV-2) | lowering of the EC50 of remdesivir (HCoV-OC43) | tolerability in humans [1]
O=C(NCc1ccc(F)cc1)C1C(=O)N(O)C(=O)c2cc(C(F)(F)F)ccc21 (stereo not shown) [#79, 7-trifluoromethyl-N-(4-fluorobenzyl)−2-hydroxy-1,3-dioxo-4H-isoquinoline-4-carboxamide] | no direct antiviral effect was detected | synergized with remdesivir | ~ 5 fold | –
CC(C)=CCc1c(O)ccc(C(=O)/C=C/c2ccc(O)cc2)c1O [#96, Isobavachalcone] | no direct antiviral effect was detected | synergized with remdesivir | ~ 5 fold | –
CC(C)=CCOc1ccc(/C=C/C(=O)c2ccc(OCC=C(C)C)cc2OCC(=O)O)cc1 [#102, Sofalcone, reference compound] | no direct antiviral effect was detected | synergized with remdesivir | ~ 5 fold | well tolerated by humans
